Literature values, collected in patent publication US11576871B2 (The Regents of the University of California, priority 2016, dated 2023).

Experiments:
[1] = test system: intracellular cystine in circulating white blood cells
[2] = children with cystinosis

Row | SMILES | time to observed decrease in leukocyte cystine ([1]; delivery of cysteamine to the small intestine (WO 2007/089670)) | depletion of intracellular cystine ([1]; taken regularly, measured in circulating white blood cells) | reduction of urine volume (and liquid consumption) [2]
1 | NCCS [cysteamine, Cysteamine] | within an hour | up to 90% | –
2 | COc1ccc2c(c1)c(CC(=O)O)c(C)n2C(=O)c1ccc(Cl)cc1 [indomethacin] | – | – | about 30%
